Data from BindingDB's records for patent US10457686 (Hoffmann-La Roche Inc., 2019).

Target: Cannabinoid receptor 1 (Homo sapiens, UniProt P21554)
Sequence (P21554 whole entry): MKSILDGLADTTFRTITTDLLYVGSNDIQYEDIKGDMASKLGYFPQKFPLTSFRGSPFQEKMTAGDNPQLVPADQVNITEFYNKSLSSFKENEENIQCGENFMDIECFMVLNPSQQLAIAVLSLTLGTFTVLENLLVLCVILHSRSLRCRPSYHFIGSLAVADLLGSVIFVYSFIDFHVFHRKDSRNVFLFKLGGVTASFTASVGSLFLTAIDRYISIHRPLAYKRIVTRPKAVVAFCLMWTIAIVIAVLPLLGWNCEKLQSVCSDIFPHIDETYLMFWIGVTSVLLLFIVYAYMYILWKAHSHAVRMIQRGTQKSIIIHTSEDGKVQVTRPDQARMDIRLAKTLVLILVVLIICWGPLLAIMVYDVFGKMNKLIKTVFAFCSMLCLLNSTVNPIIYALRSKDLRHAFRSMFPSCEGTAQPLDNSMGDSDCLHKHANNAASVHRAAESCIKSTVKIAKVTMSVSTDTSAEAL

CC(C)(C)c1nc(N2CCC(F)(F)C2)c2nn(Cc3ccc(C4(C(F)(F)F)N=N4)cc3Cl)nc2n1 [US10457686, Example 1]
Ki: > 10 µM
